Assay results: patent US20200278355A1, “CONJUGATED PROTEINS AND USES THEREOF” (THE SCRIPPS RESEARCH INSTITUTE, priority 2017, published 2020)
“Also recorded” adds a separate entry of the source.

How the values were obtained:
[1] = system: CRY1, DEPDC1, and CPLX2 expression in KEAP1-mutant NSCLC cells (H460, H2122); assay: Gene expression changes (RNA sequencing, qPCR) in KEAP1-mutant NSCLC cells; assay type: cell-based, human; conditions: 12 h; for gene expression changes (CRY1, DEPDC1, CPLX2): KEAP1-mutant NSCLC cells
Procedure: FIG. 13A-FIG. 13E illustrate characterization of NR0B1 ligands in Keap1-mutant NSCLC cells. […] Top: Heat map depicting changes in gene expression between H460 cells expressing shNRF2, shNR0B1 or a control (shGFP) and those treated with vehicle (DMSO), BPK-29 or BPK-9 (30 μM, 12 h). Expression for each condition was first normalized to appropriate controls (shGFP or DMSO) and then normalized by row. Bottom: Overlap between gene sets regulated in BPK-29-treated vs shNR0B1 H460 cells. Gene set enrichment analysis (GSEA) was applied to all genes that were differentially expressed between shNR0B1-H460 cells and shGFP-H460 cells or between H460 cells treated with BPK-29 or DMSO. Genes were ranked based on their FDR. The FDR q-value was computed by GSEA on the C2.all collection and a cut off of FDR<0.05 was required for a gene set to be considered enriched. […] H460 (left) or H2009 (right) cells were treated with vehicle, BPK-29, or BPK-9 (25 μM, 12 h). Gene expression changes for CRY1, DEPDC1, and CPLX2 were determined by qPCR and data represents mean values+SD (n=4-10). […] Cells were treated with the vehicle, BPK-29, or BPK-9 (30 μM, 12 h). Gene expression changes for Cry1, DEPDC1, and CPLX2 were determined by qPCR and data represents mean values+SD (n=4-6). […] H460 cells were treated with vehicle or BPK-29 or BPK-9 at the indicated concentrations for 9 h. Protein expression was analyzed by immunoblotting. […] Top: H460 cells were treated with cycloheximide (100 μg/mL) for the indicated time points and NR0B1 protein content assessed by immunoblotting. […] NR0B1 protein content was determined following cycloheximide treatment and data were fit into a one-phase exponential decay model. […]
RNA was isolated by RNeasy Kit (Qiagen) and digested with DNase (Qiagen) from n=3 samples per condition (cells expressing shGFP, shNRF2_1, shNR0B1_1 or shSNW1_1 or treated with DMSO, 30 μM BPK-29 or 30 μM BPK-9). RNA integrity (RIN) numbers were determined using the Agilent TapeStation prior to library preparation. mRNA-seq libraries were prepared using the TruSeq RNA library preparation kit (version 2) according to the manufacturer's instructions (Illumina). Libraries were then quantified, pooled, and sequenced by single-end 50 base pairs using the Illumina HiSeq 2500 platform at the Salk Next-Generation Sequencing Core. […] Libraries were sequenced at an average depth of 15 million reads per sample.
The spliced read aligner STAR (Dobin et al., 2013) was used to align sequencing reads to the human hg19 genome. Gene-level read counts were obtained based on UCSC hg19 gene annotation. DESeq2 (Love et al., 2014) was used to calculate differential gene expression based on uniquely aligned reads, and p-values were adjusted for multiple hypothesis testing with the Benjamini-Hochberg method.

CRY1 protein content = CRY1 protein content by immunoblotting in H460 cells; assay type: cell-based, human; conditions: 9 h
Procedure: FIG. 13A-FIG. 13E illustrate characterization of NR0B1 ligands in Keap1-mutant NSCLC cells. […] Top: Heat map depicting changes in gene expression between H460 cells expressing shNRF2, shNR0B1 or a control (shGFP) and those treated with vehicle (DMSO), BPK-29 or BPK-9 (30 μM, 12 h). Expression for each condition was first normalized to appropriate controls (shGFP or DMSO) and then normalized by row. Bottom: Overlap between gene sets regulated in BPK-29-treated vs shNR0B1 H460 cells. Gene set enrichment analysis (GSEA) was applied to all genes that were differentially expressed between shNR0B1-H460 cells and shGFP-H460 cells or between H460 cells treated with BPK-29 or DMSO. Genes were ranked based on their FDR. […] Gene expression changes for CRY1, DEPDC1, and CPLX2 were determined by qPCR and data represents mean values+SD (n=4-10). […] Gene expression changes for Cry1, DEPDC1, and CPLX2 were determined by qPCR and data represents mean values+SD (n=4-6). […] Protein expression was analyzed by immunoblotting. […] Top: H460 cells were treated with cycloheximide (100 μg/mL) for the indicated time points and NR0B1 protein content assessed by immunoblotting. […] NR0B1 protein content was determined following cycloheximide treatment and data were fit into a one-phase exponential decay model. […]

Structure (SMILES) | expression of representative genes (CRY1, DEPDC1, CPLX2) by qPCR ([1]; KEAP1-mutant H460 cells, 25 μM) | expression of representative genes (Cry1, DEPDC1, CPLX2) by qPCR ([1]; KEAP1-mutant H2122 cells, 30 μM) | gene expression changes (CRY1, DEPDC1, CPLX2) ([1]; 30 μM) | CRY1 protein content (CRY1 protein content)
O=C(c1ccc(N2CCOCC2)cc1)N1CCCC(N(Cc2ccccc2)C(=O)CCl)CC1 (stereo not drawn) [BPK-29, N-benzyl-2-chloro-N-(1-(4-morpholinobenzoyl)azepan-4-yl)acetamide] | alters the expression | alters the expression | reductions in CRY1, DEPDC1, and CPLX2 | reduces CRY1 protein content; also recorded: substantial reduction in CRY1 protein content
O=C(c1ccc(N2CCOCC2)cc1)N1CCC(CN(C(=O)CCl)c2cncnc2)CC1 [BPK-9, 2-chloro-N-((1-(4-morpholinobenzoyl)piperidin-4-yl)methyl)-N-(pyrimidin-5-yl)acetamide] |  |  | not observed | not observed
